Assay [1] deals with peritoneal mesothelial cells.
Experimental: That is, this experiment was designed to examine the morphological change in the peritoneal mesothelial cells by high glucose treatment along with the expression levels of mRNA and proteins of fibrosis-mediating materials and the ECM-related materials.
To this end, the peritonea of the male wistar rats were dissected and their peritoneal mesothelial cells were subjected to primary culture using 0.25% trypsin-EDTA. The experiment was performed after dividing them into the following three groups:
In a further assay the test system is Snail. The assay can be described thus: Snail expression in MCF7 cells (EMT-suppressing effect).

Like-named read-outs stand apart in the source and are kept apart here.

Turning to `CC(=O)O.N=C(NC(=N)N1CCCC1)Nc1ccc(OC(F)(F)F)cc1` [Example 44, N1-pyrrolidine-N5-(4-trifluoromethoxy)phenyl biguanide acetate [N-(N-(4-(trifluoromethoxy)phenyl)carbamimidoyl)pyrrolidine-1-carboximidamideacetate]], the “morphology of peritoneal mesothelial cells turned into myofibroblasts by high glucose treatment” value in assay [1] is given as “returned to maintain a shape similar to that of the normal ones (a cobblestone shape)”. Moreover, in the assay with Snail, the “suppression of the expression of Snail” value is listed as “strongly suppress the expression of Snail”.

With `CN(C)C(=N)N=C(N)N` [metformin], the “suppression of the expression of Snail” value in the assay with Snail (MCF7 cells, 1000 μM, FIG. 1) is recorded as “failed to suppress the expression of Snail”.

Consider `[H]/N=C(/N)N/C(=N/[H])NCCc1ccccc1` [phenformin], for which the “suppression of the expression of Snail” value in the assay with Snail (MCF7 cells, 10 μM, FIG. 1) is “did not show any effect regarding the suppression of Snail expression”.

For the origin of these results see US10058558B2, “Pharmaceutical composition comprising N1-cyclic amine-N5-substituted biguanide derivatives as an ingredient for preventing or treating fibrosis” (ImmunoMet Therapeutics Inc., priority 2013, dated 2018).
